From US20170273917A1, “NMDA RECEPTOR ANTAGONISTS FOR TREATING GAUCHER DISEASE” (Yeda Research and Development Co. Ltd., priority 2014, published 2017) come the findings set out here.

In series [1] the test system is GlcCer, GlcSo, GalCer, GalSo levels in the brain. As to the kind of experiment: Sphingolipid analysis (LC-ESI-MS/MS) of brains of treated mice. Type of series: in vivo, mouse. Particulars: P18. The method, then:
Sphingolipid analysis—LC-ESI-MS/MS was performed using an ABI 4000 quadrupole-linear ion trap mass spectrometer as previously described (Farfel-Becker et al. Hum Mol Genet. 2014; 23(4):843-54). The sphingolipid internal standards were obtained from Avanti Polar Lipids (Alabaster, Ala., USA).
In the next step, the consequences of GBA1 inhibition, GlcCer accumulation, was analyzed. As expected, CBE-treated mice presented higher levels of GlcCer in the brain in comparison to the controls. The average elevation in GlcCer levels in CBE-treated brains was 3.7-fold compared to PBS-treated mice (FIG. 3C). C18, the most abundant GlcCer species in the brain, was the main GlcCer species elevated (not shown). Importantly, there was no correlation between the levels of GlcCer in the brain and life spans either in the PBS(R^2=0.1441, data not shown) or CBE conditions (R^2=0.0569, FIG. 3C). There was also no correlation between the change in GlcCer levels in each strain and the life spans (R^2=0.0311, data not shown). In addition, no correlation was found between each individual GlcCer subspecies (C14, C16, C18:1, C18, C20, C22, C24:1, C24, C26:1, and C26) and life spans under PBS and CBE conditions (data not shown).
Glucosylsphingosine (GlcSo) is another lipid known to be elevated in GD and it has been proposed as a GD biomarker (Rolfs et al. PLoS One. 2013 Nov. 20; 8(11):e79732). An average elevation of ˜36-fold in GlcSo levels was found in the CBE-treated brains as compared to the controls (FIG. 3D). The potential correlation between GlcSo levels and the life spans of mice was explored—no correlation was found either under PBS(R^2=0.068, data not shown), or in the CBE-treated brains (R^2=0.0013, FIG. 3D). Similarly to the other lipids, there was no correlation between the change in GlcSo levels and mice life spans (R^2=0.0775, data not shown).
In addition, GalCer and GalSo levels were analyzed in the brains of the treated mice (FIGS. 3E-3F).

For the next series, the system named is inbred mouse strains. As to the kind of experiment: Survival of inbred mouse strains injected daily with CBE (GD induction). It is filed as in vivo. Particulars: for Average survival time: CBE 25 mg/kg/day i.p. daily from P8. An excerpt:
Mice—Pure inbred mouse strains were obtained from the Jackson laboratories (USA), Harlan UK and Harlan Israel. Specifically, BTBR T^+ Itpr3^tf/J C3H/HeJ, DBA/2J, MRL/MpJ, WSB/EiJ, MOLF/Ei, PWD/PhJ, KK/HiJ, BPL/1J, I/LnJ, BPN/3J, and LP/J were obtained from Jackson; A/J, AKR/J, NZW/LacJ, 129S1/SvImJ were obtained from Harlan laboratories in the UK; and C57BL/6JOlaHsd, BALB/cJ and FVB/NJ were obtained from the Harlan laboratories in Israel. Gba^flox/flox; nestin-Cre mice, a mouse model of GD were generated as described in Vitner et al. Nature Medicine (2014) 20: 204-208; and Enquist, I. B. et al. Proc. Natl. Acad. Sci. USA (2007) 104: 17483-17488. These mice recapitulate many features of human nGD, although their Gba1 deficiency is restricted to neural and macroglial lineages. Mice were maintained under specific pathogen-free conditions and handled according to protocols approved by the Weizmann Institute Animal Care Committee according to international guidelines.
CBE injections—Conduritol-β-epoxide (CBE) was obtained from Calbiochem Millipore (Darmstadt, Germany). CBE at a dose of 25 mg or 50 mg per kg body weight per day or PBS (control) were administered i.p. to mice daily starting from postnatal day 8 (P8) of age.
To study the potential of different mouse stains to serve as a reliable model for Type 2/3 GD, 15 different inbred mouse strains were chosen. CBE has been used to induce GD in mice for many years (Mumford et al., 1975), and it was used to generate the first animal model for GD disease. CBE is water soluble and crosses the blood brain barrier. The 15 mice strains chosen have diverse phylogenetic origins and their SNP profile is freely available (FIG. 1A). Mice were daily injected i.p. with 25 mg/kg/day of CBE starting on postnatal day 8 and for the rest of their lives (Vitner et al., 2014). […] The strains could be divided into two groups: mice in the first group were very homogeneous in their behavior; they developed a very aggressive disease with a short life span. The second group of strains presented a much longer life expectancy with a broader spectrum of phenotypes.

Structures are written as SMILES.

As for `O[C@H]1[C@H](O)[C@@H](O)[C@@H]2O[C@@H]2[C@@H]1O` [CBE, Conduritol-β-epoxide], in series [1] (CBE-treated brains compared to PBS-treated mice), the “average elevation in GlcCer levels in the brain” value is 3.7 fold. Further, in series [1] (CBE-treated brains compared to controls), the “average elevation in GlcSo levels in the brain” value is given as approximately 36 fold. In addition, the “GalCer levels in the brain” value in series [1] (CBE-treated mice vs PBS) was “no elevation”. For the same compound, the “GalSo levels in the brain” value in series [1] (CBE-treated mice vs PBS) is on record as “no elevation”. The “Average survival time” value in the series on inbred mouse strains (129S1/SvImJ mice) was 108 days; with inbred mouse strains (A/J mice) it was 23 days; in the series on inbred mouse strains (AKR/J mice), 24 days; in the series with inbred mouse strains (BALB/cJ mice), 130 days; in the series with inbred mouse strains (BTBR T+ITPR3TF/J mice), 199 days; with inbred mouse strains (C3H/HeJ mice), 24 days. Also, the “Average survival time” value turned out to be 29 days in the series on inbred mouse strains (C57BL6/JolaHsd mice); 26 days in the series with inbred mouse strains (DBA/2J mice); 106 days in the series with inbred mouse strains (FVB/NJ mice); 143 days in the series with inbred mouse strains (KK/HlJ mice); 41 days with inbred mouse strains (MOLF/Ei mice); 30 days in the series on inbred mouse strains (MRL/MpJ mice). Also, the “Average survival time” value with inbred mouse strains (NZW/LacJ mice) was 84 days; with inbred mouse strains (PWD/Ph mice), 119 days; in the series with inbred mouse strains (WSB/EiJ mice), 38 days. Also, in the series on inbred mouse strains (AKR/J mice, CBE-treated), the “average mortality on day” value was found to be 24 days. Moreover, the “100% mortality on day” value in the series with inbred mouse strains (BTBR T+ITPR3TF/J mice, CBE-treated) amounted to 199 days.
